Measured values taken from the supplement of paper PMC10307832.

Key:
Assay in all cases: relative viability (nuclei count vs DMSO), 5 days (fraction); higher = more cells survive
NCI-H2347 = test system: NCI-H2347
Outline: (§1)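 Lung cancer cell lines in 1536-well plates were dosed by pin tool the day after seeding, either with one drug alone or with a fixed anchor-drug dose plus five library-drug doses (not always all listed) in √10 steps. After 5 days, cells were fixed and their nuclei stained in one step (final 0.05% Triton X-100, 1% formaldehyde, 1 ug/ml Hoechst), then counted on 4× images. Relative viability is the nuclei count in treated wells divided by that in vehicle wells. Values are medians of duplicate plates.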

SK-MES-1 = test system: SK-MES-1
Outline: as §1

NCI-H1563 = test system: NCI-H1563
Outline: as §1

NCI-H661 = test system: NCI-H661
Outline: as §1

NCI-H322M = test system: NCI-H322M
Outline: as §1

NCI-H3122 = test system: NCI-H3122
Outline: as §1

NCI-H1651 = test system: NCI-H1651
Outline: as §1

PC-14 = test system: PC-14
Outline: as §1

NCI-H727 = test system: NCI-H727
Outline: as §1

NCI-H596 = test system: NCI-H596
Outline: as §1

RERF-LC-KJ = test system: RERF-LC-KJ
Outline: as §1

NCI-H1755 = test system: NCI-H1755
Outline: as §1

NCI-H1355 = test system: NCI-H1355
Outline: as §1

NCI-H1915 = test system: NCI-H1915
Outline: as §1

NCI-H1792 = test system: NCI-H1792
Outline: as §1

NCI-H520 = test system: NCI-H520
Outline: as §1

LXF-289 = test system: LXF-289
Outline: as §1

NCI-H460 = test system: NCI-H460
Outline: as §1

O=c1cc(N2CCOCC2)oc2c(-c3cccc4c3sc3ccccc34)cccc12 + CS(=O)(=O)CCNCc1ccc(-c2ccc3ncnc(Nc4ccc(OCc5cccc(F)c5)c(Cl)c4)c3c2)o1 [Lapatinib] (partner 2 µM)
relative viability (NCI-H2347; first compound 0.01 µM): 0.953
relative viability (NCI-H2347; first compound 0.03162 µM): 0.965
relative viability (NCI-H2347; first compound 0.1 µM): 0.93
relative viability (NCI-H2347; first compound 0.3162 µM): 0.942
relative viability (NCI-H2347; first compound 1 µM): 0.973
relative viability (SK-MES-1; first compound 0.01 µM): 0.51
relative viability (SK-MES-1; first compound 0.03162 µM): 0.53
relative viability (SK-MES-1; first compound 0.1 µM): 0.487
relative viability (SK-MES-1; first compound 0.3162 µM): 0.453
relative viability (SK-MES-1; first compound 1 µM): 0.407
relative viability (NCI-H1563; first compound 0.01 µM): 1.27
relative viability (NCI-H1563; first compound 0.03162 µM): 0.995
relative viability (NCI-H1563; first compound 0.1 µM): 1.04
relative viability (NCI-H1563; first compound 0.3162 µM): 0.762
relative viability (NCI-H1563; first compound 1 µM): 0.782
relative viability (NCI-H661; first compound 0.01 µM): 0.487
relative viability (NCI-H661; first compound 0.03162 µM): 0.531
relative viability (NCI-H661; first compound 0.1 µM): 0.603
relative viability (NCI-H661; first compound 0.3162 µM): 0.473
relative viability (NCI-H661; first compound 1 µM): 0.522
relative viability (NCI-H322M; first compound 0.01 µM): 0.584
relative viability (NCI-H322M; first compound 0.03162 µM): 0.6
relative viability (NCI-H322M; first compound 0.3162 µM): 0.577
relative viability (NCI-H322M; first compound 1 µM): 0.455
relative viability (NCI-H3122; first compound 0.01 µM): 1.04
relative viability (NCI-H3122; first compound 0.03162 µM): 0.961
relative viability (NCI-H3122; first compound 0.1 µM): 1.03
relative viability (NCI-H3122; first compound 0.3162 µM): 0.953
relative viability (NCI-H3122; first compound 1 µM): 0.97
relative viability (NCI-H1651; first compound 0.01 µM): 0.746
relative viability (NCI-H1651; first compound 0.03162 µM): 0.909
relative viability (NCI-H1651; first compound 0.1 µM): 0.875
relative viability (NCI-H1651; first compound 0.3162 µM): 0.741
relative viability (NCI-H1651; first compound 1 µM): 0.878
relative viability (PC-14; first compound 0.01 µM): 0.331
relative viability (PC-14; first compound 0.03162 µM): 0.32
relative viability (PC-14; first compound 0.1 µM): 0.272
relative viability (PC-14; first compound 0.3162 µM): 0.308
relative viability (PC-14; first compound 1 µM): 0.302
relative viability (NCI-H727; first compound 0.01 µM): 0.835
relative viability (NCI-H727; first compound 0.03162 µM): 0.973
relative viability (NCI-H727; first compound 0.1 µM): 0.925
relative viability (NCI-H727; first compound 0.3162 µM): 0.717
relative viability (NCI-H727; first compound 1 µM): 0.954
relative viability (NCI-H596; first compound 0.01 µM): 1.11
relative viability (NCI-H596; first compound 0.03162 µM): 1.16
relative viability (NCI-H596; first compound 0.1 µM): 1.06
relative viability (NCI-H596; first compound 0.3162 µM): 1.16
relative viability (NCI-H596; first compound 1 µM): 1.16
relative viability (RERF-LC-KJ; first compound 0.01 µM): 0.701
relative viability (RERF-LC-KJ; first compound 0.03162 µM): 0.882
relative viability (RERF-LC-KJ; first compound 0.1 µM): 0.906
relative viability (RERF-LC-KJ; first compound 0.3162 µM): 0.902
relative viability (RERF-LC-KJ; first compound 1 µM): 0.795
relative viability (NCI-H1755; first compound 0.01 µM): 0.81
relative viability (NCI-H1755; first compound 0.03162 µM): 1.02
relative viability (NCI-H1755; first compound 0.1 µM): 1.02
relative viability (NCI-H1755; first compound 0.3162 µM): 1.04
relative viability (NCI-H1755; first compound 1 µM): 1.07
relative viability (NCI-H1355; first compound 0.01 µM): 0.998
relative viability (NCI-H1355; first compound 0.03162 µM): 1
relative viability (NCI-H1355; first compound 0.3162 µM): 1.03
relative viability (NCI-H1355; first compound 1 µM): 0.963
relative viability (NCI-H1915; first compound 0.01 µM): 1.05
relative viability (NCI-H1915; first compound 0.03162 µM): 1.05
relative viability (NCI-H1915; first compound 0.1 µM): 0.957
relative viability (NCI-H1915; first compound 0.3162 µM): 0.977
relative viability (NCI-H1915; first compound 1 µM): 1.05
relative viability (NCI-H1792; first compound 0.01 µM): 0.884
relative viability (NCI-H1792; first compound 0.03162 µM): 0.896
relative viability (NCI-H1792; first compound 0.1 µM): 0.808
relative viability (NCI-H1792; first compound 0.3162 µM): 0.874
relative viability (NCI-H1792; first compound 1 µM): 0.828
relative viability (NCI-H520; first compound 0.01 µM): 0.781
relative viability (NCI-H520; first compound 0.03162 µM): 0.825
relative viability (NCI-H520; first compound 0.1 µM): 0.767
relative viability (NCI-H520; first compound 0.3162 µM): 0.816
relative viability (NCI-H520; first compound 1 µM): 0.906
relative viability (LXF-289; first compound 0.01 µM): 0.872
relative viability (LXF-289; first compound 0.03162 µM): 0.881
relative viability (LXF-289; first compound 0.1 µM): 0.89
relative viability (LXF-289; first compound 0.3162 µM): 0.897
relative viability (LXF-289; first compound 1 µM): 0.946
relative viability (NCI-H460; first compound 0.01 µM): 0.926
relative viability (NCI-H460; first compound 0.03162 µM): 1.07
relative viability (NCI-H460; first compound 0.1 µM): 1.09
relative viability (NCI-H460; first compound 0.3162 µM): 0.807
relative viability (NCI-H460; first compound 1 µM): 1.11
